Measured values published in ChEMBL document CHEMBL6078614, “Privileged small molecules against neglected tropical diseases: A perspective from structure activity relationships” (Eur J Med Chem, 2024).
Converted amounts (≈) assume the structure as drawn.

Legend:
Leishmania donovani [1] = assay: Antileishmanial activity against Leishmania donovani promastigotes measured after 48 hrs by MTT assay; assay type: functional, organism-based
Leishmania amazonensis = assay: Antileishmanial activity against Leishmania amazonensis amastigotes assessed as parasite growth inhibition; assay type: functional, organism-based
Entamoeba histolytica = assay: Antiparasitic activity against Entamoeba histolytica; assay type: functional, organism-based
[2] = Inhibition of Entamoeba histolytica O-acetylserine sulfhydrylase
Trypanosoma cruzi [3] = assay: Antitrypanosomal activity against trypomastigote form of Trypanosoma cruzi Y assessed as inhibition of parasite viability; assay type: functional, organism-based
Trypanosoma cruzi [4] = assay: Antiprotozoal activity against Trypanosoma cruzi epimastigotes assessed as reduction in parasite growth; assay type: functional, organism-based
Leishmania braziliensis = assay: Antileishmanial activity against Leishmania braziliensis; assay type: functional, organism-based
Leishmania major [5] = assay: Antileishmanial activity against Leishmania major amastigotes assessed as inhibition of parasite growth incubated for 48 hrs by alamar blue reagent based ELISA; assay type: functional, organism-based
HeLa = assay: Cytotoxicity against human HeLa cells assessed as reduction in cell viability incubated for 24 hrs by MTT assay; assay type: functional
Leishmania major [6] = assay: Antileishmanial activity against Leishmania major; assay type: functional, organism-based
Leishmania major [7] = assay: Antileishmanial activity against Leishmania major IR-173 promastigotes assessed as inhibition of parasite growth incubated for 24 hrs by resazurin dye based assay; assay type: functional, organism-based; conditions: IR-173, 24 h
Leishmania major [8] = assay: Antileishmanial activity against Leishmania major IR-173 promastigotes assessed as inhibition of parasite growth incubated for 48 hrs by resazurin dye based assay; assay type: functional, organism-based; conditions: IR-173, 48 h
[9] = tested on: Trypanosoma brucei rhodesiense; assay: Antitrypanosomal activity against Trypanosoma brucei rhodesiense; assay type: functional, organism-based
Trypanosoma cruzi [10] = assay: Antitrypanosomal activity against Trypanosoma cruzi Tulahuen amastigotes; assay type: functional, organism-based
Leishmania donovani [11] = assay: Antileishmanial activity against amastigote form of Leishmania donovani infected in BALB/c mouse assessed as inhibition of parasite growth in spleen at 25 mg/kg, po measured after 5 days by geimsa staining based analysis relative to control; assay type: functional; design: scale not given: the % may be the effect or the level left; conditions: time 5 day
Leishmania mexicana [12] = assay: Antileishmanial activity against Leishmania mexicana promastigotes assessed as reduction in parasite growth by alamar-blue staining based analysis; assay type: functional, organism-based
Phosphodiesterase 4 = Phosphodiesterase 4 (Homo sapiens, UniProt P27815+Q08499+Q07343+Q08493); assay: Inhibition of PDE4 (unknown origin); assay type: protein assay
Leishmania major [13] = assay: Antileishmanial activity against Leishmania major promastigotes assessed as inhibition of parasite growth incubated for 48 hrs by resazurin dye based assay; assay type: functional, organism-based
L929 = assay: Cytotoxicity against mouse L929 cells assessed as reduction in cell viability; assay type: functional
Trypanosoma cruzi [14] = assay: Antitrypanosomal activity against trypomastigote form of Trypanosoma cruzi Y assessed as inhibition of parasite viability incubated for 24 hrs by light microscopy; assay type: functional, organism-based
Leishmania major [15] = assay: Antileishmanial activity against Leishmania major promastigotes assessed as inhibition of parasite growth; assay type: functional, organism-based
Leishmania chagasi = assay: Antileishmanial activity against Leishmania chagasi; assay type: functional, organism-based
Trypanosoma brucei = assay: Antitrypanosomal activity against Trypanosoma brucei; assay type: functional, organism-based
Leishmania infantum = assay: Inhibition of Leishmania infantum Arginase expressed in Escherichia coli BL21 (DE3) at 50 uM by enzymatic assay relative to control
Leishmania mexicana [16] = assay: Antileishmanial activity against Leishmania mexicana promastigotes
Leishmania donovani [17] = assay: Antileishmanial activity against Leishmania donovani amastigotes infected in J774 macrophage assessed as inhibition of parasite growth incubated for 48 hrs by luciferase assay; assay type: functional, organism-based; conditions: J774, 48 h
HepG2 = assay: Cytotoxicity against human HepG2 cells assessed as reduction in cell viability by MTT assay; assay type: functional

Cc1cccnc1-n1cccc1C(=O)c1ccc(F)cc1
IC50 (Leishmania donovani [1]): 7.78 µM | IC50 (Leishmania amazonensis): 16.9 µM

CC(C)Cc1ccc(C(C)C(=O)O)cc1 (centres undefined) [IBUPROFEN]
IC50 (Entamoeba histolytica): 0.172 µM

Cc1c(OCC(F)(F)F)ccnc1C[S+]([O-])c1nc2ccc([N+](=O)[O-])cc2[nH]1 (centres undefined)
IC50 ([2]; read-out: IC50): 15 µM

COc1ccc2cc([C@H](C)C(=O)O)ccc2c1 [NAPROXEN]
IC50 (Entamoeba histolytica): 0.14 µM

CN1C(=N)N/C(=C/c2c[nH]c3cc(Br)ccc23)C1=O
IC50 (Trypanosoma cruzi [3]): 62 µM

O=C(Nc1ccc2c(c1)CN(c1ccc(Br)cc1)C2=O)N1CCN(c2ccc(F)cc2)CC1
IC50 (Trypanosoma cruzi [4]): 0.05 µM

CN1CCN(c2nn3c(-c4cccc([N+](=O)[O-])c4)nnc3c3ccccc23)CC1
IC50 (Leishmania braziliensis): 9.37 µM

COc1ccc2c(c1)c(CC(=O)O)c(C)n2C(=O)c1ccc(Cl)cc1 [INDOMETHACIN]
IC50 (Entamoeba histolytica): 0.22 µM

Cc1ccn2c(C(=O)N3CCN(CCc4cn(-c5cccc(Cl)c5)nn4)CC3)c(C)nc2c1
IC50 (Leishmania major [5]): 15.1 µM | CC50 (HeLa): 62.7 µM

O=[N+]([O-])c1ccc(-c2nnc(NCCCO)s2)o1
IC50 (Leishmania major [6]): 18 µM

Cc1ccc(C(=O)NC(=S)NCc2ccco2)cc1
IC50 (Leishmania major [6]): 38.5 µg/mL

Clc1ccc(-n2cc(C3=NCCS3)cn2)c(Cl)c1
IC50 (Trypanosoma cruzi [3]): 0.4 µM

Cn1ccnc1-c1nnc(-c2ccc([N+](=O)[O-])s2)s1
IC50 (Leishmania major [7]): 11.2 µg/mL (≈ 38.2 µM) | IC50 (Leishmania major [8]): 7.1 µg/mL (≈ 24.2 µM)

COc1cc(/C=C/C(=O)CC(=O)/C=C/c2ccc(O)c(OC)c2)ccc1O [CURCUMIN]
EC50 [9]: 4.85 µM

O=[N+]([O-])c1ccc(-c2nnc(N3CCC(O)CC3)s2)o1
IC50 (Leishmania major [6]): 68.9 µM

O=C(Nc1cc2nc(-c3cccc(C(F)(F)F)c3)cn2cn1)N1CC[C@H](F)C1
EC50 (Trypanosoma cruzi [10]): 0.08 µM

Cc1ccn2c(C(=O)N3CCN(CCc4cn(-c5ccc(Br)cc5)nn4)CC3)c(C)nc2c1
IC50 (Leishmania major [5]): 15.1 µM

O=C(Cn1nnc2ccccc21)NNCc1ccccc1Cl
Activity (Leishmania donovani [11]): 89.4%

c1ccc(-c2cnc3ccccc3n2)cc1
IC50 (Leishmania mexicana [12]): 12.5 µM

COc1ccc(C2=NN(C(C)C)C(=O)C2(C)C)cc1-c1cccnc1
pIC50 (Phosphodiesterase 4): 6.4

C[C@@H]1[C@H](O)[C@@H](C)/C=C/C=C/C=C/C=C/C=C/C=C/C=C/[C@H](O[C@@H]2O[C@H](C)[C@@H](O)[C@H](N)[C@@H]2O)C[C@@H]2O[C@](O)(C[C@@H](O)C[C@@H](O)[C@H](O)CC[C@@H](O)C[C@@H](O)CC(=O)O[C@H]1C)C[C@H](O)[C@H]2C(=O)O [AMPHOTERICIN B]
IC50 (Leishmania major [13]): 0.19 µg/mL (≈ 0.206 µM)

Clc1ccc(-n2cc(C3=NCCS3)cn2)cc1Cl
IC50 (Trypanosoma cruzi [3]): 1.9 µM

COc1ccc(C(=O)NC(=S)Nc2nc(-c3ccccc3)c(C)s2)cc1
IC50 (Leishmania major [6]): 38.5 µg/mL

Cn1c(/C=C/C(=O)NO)ccc1/C=C/C(=O)c1cccc(Cl)c1
CC50 (L929): 40 µM | EC50 (Trypanosoma cruzi [14]): 7 µM

NNS(=O)(=O)c1ccc([N+](=O)[O-])o1
IC50 (Leishmania major [5]): 5.75 µM | IC50 (Leishmania major [15]): 1.85 µM

COc1ccc(C2=NN(C(C)C)C(=O)C2(C)C)cc1-c1ccncc1
pIC50 (Phosphodiesterase 4): 5.8

COc1ccc(/C=N/NC(N)=S)cc1
IC50 (Leishmania chagasi): 1.6 µM

CC(C)(Oc1ccc(Cl)cc1)C(=O)O [CLOFIBRIC ACID]
IC50 (Entamoeba histolytica): 0.145 µM

O=C(O)Cc1ccccc1Nc1c(Cl)cccc1Cl [DICLOFENAC]
IC50 (Entamoeba histolytica): 0.22 µM

N=C(N)N/N=C/c1cccc(Cl)c1Cl
IC50 (Leishmania chagasi): 7.27 µM

O=C(Cn1ccnc1[N+](=O)[O-])NCc1ccccc1 [BENZNIDAZOLE]
EC50 (Trypanosoma brucei): 1.94 µM

O=[N+]([O-])c1ccc(-c2nnc(N3CCC(O)CC3)s2)s1
IC50 (Leishmania major [6]): 27 µM

Cc1ccn2c(C(=O)N3CCN(CCn4cc(-c5ccc(C(C)(C)C)cc5)nn4)CC3)c(C)nc2c1
IC50 (Leishmania major [5]): 15.1 µM

Brc1ccc(-n2cc(C3=NCCS3)cn2)cc1
IC50 (Trypanosoma cruzi [3]): 2.1 µM

c1ccc(-c2cnc3c(n2)CCCC3)cc1
IC50 (Leishmania mexicana [12]): 39.8 µM

COc1ccc2nc(-c3ccccc3)cnc2c1
IC50 (Leishmania mexicana [12]): 50.9 µM

N=C(N)N/N=C/c1ccc2ccccc2n1
IC50 (Leishmania chagasi): 0.6 µM

Cc1sc(NC(=S)NC(=O)c2cccc(Cl)c2)nc1-c1ccccc1
IC50 (Leishmania major [6]): 38.5 µg/mL

O=c1[nH]c2cc(Cl)c(Cl)cc2c(=O)n1-c1ccccc1
IC50 (Leishmania mexicana [12]): 6.05 µM

O=C(NCCNc1nccc(-c2c(-c3cccc(O)c3)nc3sccn23)n1)c1ccc(N2CCOCC2)c(C(F)(F)F)c1
IC50 (Leishmania chagasi): 32.4 µM | inhibition (Leishmania infantum): 67%

COc1ccc2c(-c3ccnc(Nc4cccc(C#N)c4)n3)c(CO)nn2n1
EC50 (Trypanosoma cruzi [10]): 7.2 µM

Cc1ncc([N+](=O)[O-])n1CCOC(=O)NC1CCCCC1
IC50 (Entamoeba histolytica): 0.46 µM

CC(C)(C)Nc1c(-c2cc3ccccc3n3nnnc23)nc2sc(C#N)cn12
IC50 [2]: 140 µg/mL

CC(C)c1ccc(S(=O)(=O)/N=N/Cc2ccc([N+](=O)[O-])o2)cc1
IC50 (Leishmania major [5]): 4.71 µM

NC(=O)Nc1cc2nc(-c3cccc(C(F)(F)F)c3)cn2cn1
EC50 (Trypanosoma cruzi [10]): > 20 µM

NCCCC(N)(C(=O)O)C(F)F (centres undefined) [EFLORNITHINE]
EC50 (Trypanosoma brucei): 13 µM

N=C(N)N/N=C/c1ccccc1-c1ccccc1
IC50 (Leishmania chagasi): 4.97 µM

CCCCCCCCCCCCCCCCOP(=O)([O-])OCC[N+](C)(C)C [MILTEFOSINE]
Activity (Leishmania donovani [11]): >98%

Cc1nc(C)c(C(=O)Nc2ccc(F)c(-c3nc4ncc(-c5ccccc5Cl)cn4n3)c2)o1
EC50 (Trypanosoma cruzi [10]): 0.02 µM

CCCCCCCCCc1cn(CCN2CCN(C(=O)c3c(C)nc4cc(C)ccn34)CC2)nn1
IC50 (Leishmania major [5]): 15.1 µM

O=[N+]([O-])c1ccc2nc([S+]([O-])Cc3ccccn3)[nH]c2c1 (centres undefined)
IC50 ([2]; read-out: IC50): 11 µM

COc1cccc(-c2nc3sccn3c2-c2ccnc(NCCNC(=O)Nc3cccc(C(F)(F)F)c3)n2)c1
IC50 (Leishmania chagasi): 30 µM | inhibition (Leishmania infantum): 69.2%

NNc1nc(-c2ccccc2Cl)nc2ccccc12
IC50 (Leishmania braziliensis): 8.43 µM

c1cncc(Nc2nccc(-c3cnn4ncccc34)n2)c1
EC50 (Trypanosoma cruzi [10]): 7.7 µM

O=C(Nc1cc2nc(-c3ccc(F)c(F)c3)cn2cn1)N1CC[C@H](F)C1
EC50 (Trypanosoma cruzi [10]): 0.73 µM

NNc1nc(-c2ccc(F)cc2)nc2ccccc12
IC50 (Leishmania braziliensis): 7.41 µM

CC1CS(=O)(=O)CCN1/N=C/c1ccc([N+](=O)[O-])o1 (centres undefined) [NIFURTIMOX]
IC50 (Leishmania mexicana [16]): 9.32 µM

O=C(Nc1nc2cc(Cl)ccc2o1)C(c1ccccc1)c1ccccc1
IC50 (Leishmania donovani [17]): 9.1 µM

COc1ccc(C2=NN(C(C)C)C(=O)C2(C)C)cc1OCc1ccccc1
pIC50 (Phosphodiesterase 4): 6.8

N/C(S)=N/N=C/c1cccc(Cl)c1Cl
IC50 (Leishmania chagasi): 2.2 µM

O=[N+]([O-])c1c(CS(=O)(=O)c2ccccc2)nc2c(Sc3ccc(Cl)cc3)cc(Cl)cn12
IC50 (Leishmania donovani [17]): 1.3 µM | CC50 (HepG2): > 100 µM

Cc1ccc(N2Cc3cc(NC(=O)N4CCN(c5cccc(C(F)(F)F)c5)CC4)ccc3C2=O)cc1
IC50 (Trypanosoma cruzi [4]): 0.04 µM

CCc1ccc(-n2cc(CCN3CCN(C(=O)c4c(C)nc5cc(C)ccn45)CC3)nn2)cc1
IC50 (Leishmania major [5]): 15.1 µM

N=C(S)N/N=C/c1ccc(C(F)(F)F)cc1
IC50 (Leishmania chagasi): 3.2 µM

O=C1c2ccccc2C(=O)N1CCn1cc(-c2ccccc2)nn1
IC50 (Leishmania amazonensis): 125 µM

COC(=O)c1nc(NC(=O)c2cc(NC(=O)c3nc(NC(=O)OC(C)(C)C)sc3C(C)C)cn2C)sc1C(C)C
EC50 [9]: 11.8 µM
